We go through 7 compounds from BindingDB's records for doi:10.1016/j.bmcl.2003.09.076 (Eli Lilly, 2003).

In general, pKi refers to the negative decadic logarithm of the Ki, by convention in mol/L. As a reminder, the pIC50 is −log10 of the IC50, conventionally taken in molar units.

Test [1] can be described thus: Binding affinity towards Protease using PNA assay […].
The nature of test [2]: Cytotoxic activity in human liver Huh-7 cells.
Test [3] is described as follows: Inhibitory activity against Protease using replicon assay […] at 50 uM concentration.

pIC50, pKi: −log10 of the molar value.

`CCCC(NC(=O)[C@@H]1[C@H]2CCC(F)(F)[C@H]2CN1C(=O)[C@@H](NC(=O)OC(C)C)C(C)(C)C)C(=O)C(=O)N[C@@H](C)c1ccccc1` (stereo partly drawn) [((S)-1-{(1S,3aR,6aS)-4,4-Difluoro-1-[1-((S)-1-phenyl-ethylaminooxalyl)-butylcarbamoyl]-hexahydro-cyclopenta[c]pyrrole-2-carbonyl}-2,2-dimethyl-propyl)-carbamic acid isopropyl ester]: the negative logarithm of the Ki (pKi) in test [1] is 5.68. In test [2], the pIC50 is < 4.00.
In test [1], `CCCC(NC(=O)[C@@H]1[C@H]2CCC[C@H]2CN1C(=O)[C@@H](NC(=O)[C@H](O)C(C)C)C(C)C)C(=O)C(=O)NC1CC1` (stereo partly drawn) [(1S,3aR,6aS)-2-[(S)-2-((R)-2-Hydroxy-3-methyl-butyrylamino)-3-methyl-butyryl]-octahydro-cyclopenta[c]pyrrole-1-carboxylic acid (1-cyclopropylaminooxalyl-butyl)-amide] had a negative logarithm of the Ki (pKi) of 4.84. The pIC50 in test [2] is < 4.00.
In the case of `CCCC(NC(=O)[C@@H]1[C@H]2CCC[C@H]2CN1C(=O)[C@@H](NC(=O)[C@H](O)C(C)C)C(C)C)C(=O)C(=O)Nc1ccccc1` (stereo partly drawn) [(1S,3aR,6aS)-2-[(S)-2-((R)-2-Hydroxy-3-methyl-butyrylamino)-3-methyl-butyryl]-octahydro-cyclopenta[c]pyrrole-1-carboxylic acid (1-phenylaminooxalyl-butyl)-amide], the pIC50 in test [3] is < 4.00. In test [1], this compound had a pKi of 5.74.
Compound `CCCC(NC(=O)[C@@H]1[C@H]2CCC[C@H]2CN1C(=O)[C@@H](NC(=O)OC(C)C)C(C)(C)C)C(=O)C(=O)Nc1ccccc1` (stereo partly drawn) [{(S)-2,2-Dimethyl-1-[(1S,3aR,6aS)-1-(1-phenylaminooxalyl-butylcarbamoyl)-hexahydro-cyclopenta[c]pyrrole-2-carbonyl]-propyl}-carbamic acid isopropyl ester] had a pKi in test [1] of 6.09.
Same read-out and setting: under `CCCC(NC(=O)[C@@H]1[C@H]2CCC(F)(F)[C@H]2CN1C(=O)[C@@H](NC(=O)[C@H](O)C(C)C)C(C)C)C(=O)C(=O)NC1CC1` (stereo partly drawn) [(1S,3aR,6aS)-4,4-Difluoro-2-[(S)-2-((R)-2-hydroxy-3-methyl-butyrylamino)-3-methyl-butyryl]-octahydro-cyclopenta[c]pyrrole-1-carboxylic acid (1-cyclopropylaminooxalyl-butyl)-amide] stands 4.78.
Turning to `CCCC(NC(=O)[C@@H]1[C@H]2CCC[C@H]2CN1C(=O)[C@@H](NC(=O)OC(C)C)C(C)C)C(=O)C(=O)N[C@@H](C)c1ccccc1` (stereo partly drawn) [((S)-2-Methyl-1-{(1S,3aR,6aS)-1-[1-((S)-1-phenyl-ethylaminooxalyl)-butylcarbamoyl]-hexahydro-cyclopenta[c]pyrrole-2-carbonyl}-propyl)-carbamic acid isopropyl ester], the negative logarithm of the Ki (pKi) in test [1] was 5.72. Also, in test [2], the negative-log IC50 (pIC50) was < 4.00.
The like results for `CCCC(NC(=O)[C@@H]1[C@H]2CCC(F)(F)[C@H]2CN1C(=O)[C@@H](NC(=O)OC(C)C)C(C)C)C(=O)C(=O)N[C@@H](C)c1ccccc1` (stereo partly drawn) [((S)-1-{(1S,3aR,6aS)-4,4-Difluoro-1-[1-((S)-1-phenyl-ethylaminooxalyl)-butylcarbamoyl]-hexahydro-cyclopenta[c]pyrrole-2-carbonyl}-2-methyl-propyl)-carbamic acid isopropyl ester] were, in that order, 5.17 and < 4.00.
